{"source": "patent US20180008629A1", "about": "“Compositions and Methods for Treating NLRP3 Inflammasome-Related Diseases and Disorders” (priority 2015, published 2018)", "key": {"NLRP3 inflammasome [1]": {"molecular_target": "T1, NLRP3 inflammasome (Mus musculus, UniProt Q8R4B8)", "T1 sequence (Q8R4B8 whole entry)": "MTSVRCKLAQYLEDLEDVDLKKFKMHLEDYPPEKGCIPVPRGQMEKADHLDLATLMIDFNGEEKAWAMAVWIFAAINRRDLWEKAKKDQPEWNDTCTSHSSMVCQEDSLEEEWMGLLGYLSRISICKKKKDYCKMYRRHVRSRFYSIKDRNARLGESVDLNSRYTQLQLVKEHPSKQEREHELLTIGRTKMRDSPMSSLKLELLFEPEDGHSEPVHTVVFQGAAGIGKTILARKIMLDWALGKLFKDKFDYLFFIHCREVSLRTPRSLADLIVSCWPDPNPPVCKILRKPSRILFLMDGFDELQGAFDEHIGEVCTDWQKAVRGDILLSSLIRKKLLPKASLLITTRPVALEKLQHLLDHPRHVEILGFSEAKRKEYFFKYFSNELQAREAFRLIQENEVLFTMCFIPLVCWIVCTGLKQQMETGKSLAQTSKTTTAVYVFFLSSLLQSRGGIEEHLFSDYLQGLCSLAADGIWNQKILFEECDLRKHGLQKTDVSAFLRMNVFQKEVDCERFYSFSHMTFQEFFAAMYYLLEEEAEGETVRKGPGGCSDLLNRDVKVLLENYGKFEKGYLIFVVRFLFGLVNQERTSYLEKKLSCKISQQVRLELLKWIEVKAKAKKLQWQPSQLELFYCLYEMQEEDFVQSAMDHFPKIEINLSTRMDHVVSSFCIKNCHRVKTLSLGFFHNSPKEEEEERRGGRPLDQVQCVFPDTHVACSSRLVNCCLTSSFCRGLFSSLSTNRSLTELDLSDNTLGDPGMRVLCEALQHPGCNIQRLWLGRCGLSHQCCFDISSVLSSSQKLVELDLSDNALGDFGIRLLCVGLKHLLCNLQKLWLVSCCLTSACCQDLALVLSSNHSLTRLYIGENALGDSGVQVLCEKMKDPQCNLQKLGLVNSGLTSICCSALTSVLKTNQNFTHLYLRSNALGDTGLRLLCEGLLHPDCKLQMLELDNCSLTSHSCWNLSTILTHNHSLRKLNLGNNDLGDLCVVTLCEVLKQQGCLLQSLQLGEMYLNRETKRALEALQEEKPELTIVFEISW", "assay": "NLRP3 inflammasome activation in LPS primed BMDMs (caspase-1 / IL-1β immunoblot)", "format": "cell-based", "set-up": "endogenous in cells; host or cells: mouse bone marrow derived macrophages (A1)", "quoted_text": "All steps were performed using sterile technique. Femurs were collected in RPMI (Life Technologies, Grand Island, N.Y.)+5% FBS (R5; Omega Scientific, Tarzana, Calif.). Both ends of the femur were then cut and the femur was flushed with R5. The bone marrow was centrifuge at 450 g for 5 min, the supernatant was decanted and red blood cells were lysed using ACK lysis buffer (Quality Biological, Gaithersburg, Md.). After neutralization with R5, bone marrow cells were centrifuged, resuspended in 10 ml of R5 and placed into a 6 well plate. Non-adherent cells were collected the following morning. The non-adherent cells were resuspended at 4×10^6 cells/ml in media consisting of 10 ml supernatant of non-adherent cells, 7.2 ml L929 conditioned media, 6.8 ml R5 and MCSF (long/ml; R&D Systems, Minneapolis, Minn.). An additional 2 ml of fresh media was added 4 d after isolation. Non-adherent cells were collected on day 7, separated by density gradient separation using Fico/Lite (Atlanta Biologicals, Flowery Branch, Ga.) and mononuclear cells were collected. Cells were rinsed twice with Dulbecco's PBS+2% FBS, and resuspended at 1×10^6 cells/ml. Cells were treated with ultrapure LPS (Invivogen, San Diego, Calif.) alone or in combination with 5 mM ATP (Sigma, St. Louis, Mo.) or 200 μM palmitate-BSA (Sigma). The BMDMs were also primed with ultrapure lipid A (10 μg/ml; Invivogen, San Diego, Calif.), lipoteichoic acid (10 μg/ml; Invivogen), or Pam3-CSK4 (10 μg/ml; Invivogen) for 4 hour and stimulated with various NLRP3 activators (ATP 5 mM; Sigma, MSU 250 ug/ml; Invivogen, Silica; 200 ug/ml; Invivogen, sodium palmitate; 200 μM; Sigma, ceramide C6 80 μg/ml; Cayman, and sphingosine 40 μM; Cayman, Ann Arbor, Mich.) for 1 hour together with D-BHB or L-(BHB) at indicated concentration. The cell supernatants and cell lysates were collected 1 h after BHB treatment and analyzed for caspase-1 and IL-1β.\nThe BMDM cell lysates were prepared using RIPA buffer and immediately snap frozen in liquid nitrogen. Samples were left on ice for 1 hour with vortexing every 10 min. Samples were then centrifuge at 14,000 g for 15 min, the supernatant was collected and the protein concentration was determined using the DC Protein Assay (Bio-RAD). […] The immune complexes were visualized by incubation with horseradish peroxidase-conjugated anti-rat or anti-rabbit secondary antibody (Amersham Biosciences). Immunoreactive bands were visualized by enhanced chemiluminescence (PerkinElmer Life Sciences)."}, "caspase-11": {"test_system": "caspase-11", "assay": "Non-canonical inflammasome pathway, caspase-11 immunoblot in LPS treated BMDMs", "format": "cell-based, mouse", "settings": "BMDMs treated with LPS 4 h"}, "H3 acetylation": {"test_system": "H3 acetylation", "assay": "H3 acetylation in LPS primed BMDMs (western blot)", "format": "cell-based, mouse", "settings": "LPS primed BMDMs treated with ATP and BHB 1 h", "method": "FIG. 5, comprising FIGS. 5A-5B, depicts data from experiments examining the mechanism of BHB's anti-inflammasome effects. FIG. 5A is a representative western blot analysis of caspase-1 in BMDMs primed with LPS for 4 hours and stimulated with 2DG, AICAR, Compound C and BHB for 1 h on indicated combinations. FIG. 5B is a representative western blot examining H3 acetylation in LPS primed BMDMs treated with ATP and S- or D-BHB (R-BHB) for 1 h.\nThe BMDM cell lysates were prepared using RIPA buffer and immediately snap frozen in liquid nitrogen. Samples were left on ice for 1 hour with vortexing every 10 min. Samples were then centrifuge at 14,000 g for 15 min, the supernatant was collected and the protein concentration was determined using the DC Protein Assay (Bio-RAD). The immunoblot analysis was performed using previously described methods (Vandanmagsar et al., 2011, Nat. Med. 17:179-188). The immune complexes were visualized by incubation with horseradish peroxidase-conjugated anti-rat or anti-rabbit secondary antibody (Amersham Biosciences). Immunoreactive bands were visualized by enhanced chemiluminescence (PerkinElmer Life Sciences)."}, "BMDMs [2]": {"test_system": "BMDMs", "assay": "BMDM viability and proliferation (MTT assay)", "format": "cell-based, mouse", "method": "(§1) The BMDM proliferation in response to BHB treatment was analyzed using the MTT assay according to manufacturer's instructions. The BMDM were incubated with Asante Potassium Green 1 (APG-1) which is a fluorescent indicator with a Kd for measuring cytosolic K+ concentration. It has non-ratiometric large fluorescence dynamic range allows sensing of even small changes in K+ concentration. Optimal excitation was recorded at 517 nm. In addition, the K+ was measured in BMDMs using an ElementXR or Agilent 7700 Inductively Coupled Mass Spectrometry (ICP-MS) using previously described methods (Muñoz-Planillo et al., 2013, Immunity 38:1142-1153). For error analysis, samples and standard solutions were run in duplicate."}, "NLRP3 inflammasome [3]": {"molecular_target": "T1, NLRP3 inflammasome", "assay": "IL-1β secretion from mouse neutrophils after NLRP3 activation (western blot)", "format": "cell-based", "set-up": "endogenous in cells; host or cells: mouse bone marrow neutrophils (A15)", "method": "Neutrophils from young (3 month) and aged (24 months) mice were stimulated with LPS, and the NLRP3 inflammasome was activated by treatment with ATP and C6 Ceramide. BHB was provided at the same time of ATP and ceramide treatment.\nAdult and old neutrophils were analyzed for ketogenic and ketolytic enzyme expression. Gene expression was measured by RT-PCR (FIG. 14A). Expression was normalized to Gapdh expression and was represented as expression relative to adult gene expression. SCOT, HMGCL, and β-Actin protein expression were assessed in unstimulated adult and old neutrophils by Western blot (FIG. 14B). Dose response to BHB was measured by assaying IL-1β secretion in supernatants from adult neutrophils (FIG. 14C). Western blots were generated of IL-1β in supernatants from adult and old neutrophils stimulated with LPS+ATP or LPS+ceramide (FIG. 14D). In FIG. 14A, each dot represents a pooled sample of n=2 mice. In FIGS. 14B-14D, each blot is representative of at least two independent experiments. Each sample analyzed by Western blot is pooled from n=4-6 mice per experiment.\nAdult neutrophils were stimulated with LPS+ATP+BHB to test the mechanism by which BHB blocks IL-1β secretion. LPS-primed neutrophils were stimulated with ATP in the presence of BHB or niacin (FIG. 15A). Supernatants were analyzed for IL-1β secretion by Western blot. Wildtype of mCAT neutrophils were stimulated with LPS+ATP+BHB (FIG. 15B). Supernatants were analyzed for IL-1β secretion by Western blot. Catalase and β-Actin expression were measured by Western blot in neutrophil cell lysates. LPS-primed neutrophils were stimulated with ATP+BHB in the presence of 3-MA or AOA as indicated (FIG. 15C). Supernatants were analyzed for IL-1β secretion by Western blot. The enantiomer S-BHB was tested in a dose response for the ability to inhibit inflammasome activation (FIG. 15D). Supernatants were analyzed for IL-1β secretion by Western blot. FCAS neutrophils were incubated with 4-OHT followed by LPS priming. […] Supernatants were analyzed for IL-1β secretion by Western blot. […]"}, "BMDMs [4]": {"test_system": "BMDMs", "assay": "Intracellular K+ measurement in BMDMs (APG-1 dye, ICP-MS)", "format": "cell-based, mouse", "settings": "LPS primed BMDMs", "method": "as §1"}, "[5]": {"settings": "due to increased clearance; literature; cited from earlier work"}}, "data": [{"smiles": "CC(O)CC(=O)O", "note": "(stereo not drawn) [BHB, β-hydroxybutyrate]", "values": [{"measurement": "BHB's inhibitory effects on the inflammasome in macrophages lacking Atg5", "setting": "NLRP3 inflammasome [1]; Atg5 deficient BMDMs, LPS, ATP, BHB (10 mM)", "value": "not required"}, {"measurement": "ATP-induced caspase-1 activation without involvement of AMPK", "setting": "NLRP3 inflammasome [1]; BHB (10 mM) with AICAR 2 mM or Compound C 25 μM", "value": "suppressed"}, {"measurement": "ATP-induced IL-1β activation without involvement of AMPK", "setting": "NLRP3 inflammasome [1]; BHB with AICAR or Compound C", "value": "suppressed"}, {"measurement": "inflammasome activation after priming with Pam3-CSK4", "setting": "NLRP3 inflammasome [1]; BMDMs primed with TLR1/2 ligand Pam3-CSK4 4 h, ATP and BHB 1 h", "value": "effectively suppressed"}, {"measurement": "inflammasome activation after priming with lipoteichoic acid (LTA)", "setting": "NLRP3 inflammasome [1]; BMDMs primed with TLR2 agonist LTA 4 h, ATP and BHB 1 h", "value": "effectively suppressed"}, {"measurement": "inflammasome activation after priming with lipid A", "setting": "NLRP3 inflammasome [1]; BMDMs primed with TLR4 agonist lipid A 4 h, ATP and BHB 1 h", "value": "effectively suppressed"}, {"measurement": "BHB's anti-inflammasome effects in BMDMs deficient in GPR109a", "setting": "NLRP3 inflammasome [1]; Gpr109a deficient BMDMs, LPS and ATP, BHB (10, 20 mM)", "value": "could not be abrogated"}, {"measurement": "processing of biologically active p17 form of IL-1β", "setting": "NLRP3 inflammasome [1]; LPS primed BMDMs, ATP and BHB for 60 minutes", "value": "dose-dependently inhibited"}, {"measurement": "ATP-induced caspase-1 cleavage", "setting": "NLRP3 inflammasome [1]; LPS primed BMDMs, ATP and BHB for 60 minutes, Western blot of p20", "value": "dose-dependently inhibited"}, {"measurement": "inflammasome activation by ceramides", "setting": "NLRP3 inflammasome [1]; LPS primed BMDMs, C6 ceramide 6 h (80 μg/ml)", "value": "blocked"}, {"measurement": "monosodium urate (MSU) crystals induced caspase-1 activation", "setting": "NLRP3 inflammasome [1]; LPS primed BMDMs, MSU", "value": "inhibited"}, {"measurement": "inflammasome activation by nigericin", "setting": "NLRP3 inflammasome [1]; LPS primed BMDMs, nigericin (10 μM) 1 h", "value": "blocked"}, {"measurement": "inflammasome activation by palmitate", "setting": "NLRP3 inflammasome [1]; LPS primed BMDMs, palmitate (200 μM) 12 h", "value": "blocked"}, {"measurement": "inflammasome activation by silica particles", "setting": "NLRP3 inflammasome [1]; LPS primed BMDMs, silica 1 hour", "value": "blocked"}, {"measurement": "inflammasome activation by sphingosine", "setting": "NLRP3 inflammasome [1]; LPS primed BMDMs, sphingosine (50 μM) 1 h", "value": "blocked"}, {"measurement": "BHB's inhibitory effects on NLRP3 activation after ablation of Sirt2 or UCP2", "setting": "NLRP3 inflammasome [1]; Sirt2−/− or Ucp2−/− BMDMs, LPS and ATP, BHB (10 mM) 1 h", "value": "did not control"}, {"measurement": "caspase-11 activation", "setting": "caspase-11", "value": "neither butyrate nor BHB blocks"}, {"measurement": "H3 acetylation in macrophages", "setting": "H3 acetylation", "value": "inducing"}, {"measurement": "cellular proliferation", "setting": "BMDMs [2]; 10 mM concentration", "value": "significantly increased"}, {"measurement": "viability of BMDMs", "setting": "BMDMs [2]; increasing concentration of BHB", "value": "did not impair"}, {"measurement": "NLRP3 inflammasome activation in neutrophils", "setting": "NLRP3 inflammasome [3]; adult and old mouse neutrophils, LPS+ATP or LPS+ceramide, IL-1β in supernatants", "value": "inhibit"}, {"measurement": "mechanism of inhibitory effects in neutrophils", "setting": "NLRP3 inflammasome [3]; adult neutrophils stimulated with LPS+ATP+BHB", "value": "physically blocking inflammasome assembly"}, {"measurement": "IL-1β production after NLRP3 activation in neutrophils", "setting": "NLRP3 inflammasome [3]; neutrophils from young (3 month) and aged (24 month) mice, LPS, ATP and C6 Ceramide, 10 mM BHB", "value": "blocks"}, {"measurement": "decline in intracellular K+ in response to MSU", "setting": "BMDMs [4]; BHB 1 h", "value": "prevented the decline"}, {"measurement": "decline in intracellular K+ in response to ATP", "setting": "BMDMs [4]; BHB (10 mM)", "value": "prevented the decline"}, {"measurement": "decline in intracellular K+ in response to ceramides", "setting": "BMDMs [4]; C6 ceramide and BHB 1 h", "value": "prevented the decline"}, {"measurement": "serum concentration after administration", "setting": "[5]", "value": "insufficient to achieve sustained high serum concentration"}]}]}
